The source of these data is ChEMBL document CHEMBL5143576, “Tigliane Diterpenoids with Larvicidal, Antifungal, and α-Glucosidase Inhibitory Activities from Croton damayeshu” (J Nat Prod, 2022).

By MIC50 is commonly meant an inhibitory concentration at the 50% level, which refers to growth in some studies and to a panel of isolates in others. The term LC50 denotes the concentration that kills 50% of the test population.

Values after ≈ are worked out from the molar mass of the structure shown.

Holding throughout (format): functional
Assay [1] deals with Candida albicans. Description: Antifungal activity against Fluconazole- resistant Candida albicans incubated for 24 hrs in presence of fluconazole by microbroth dilution method. For orientation: Broth dilution looks for growth in wells or tubes with falling amounts of substance.
In assay [2] the test system is Candida albicans. Description: Antifungal activity against Fluconazole- resistant Candida albicans incubated for 24 hrs by microbroth dilution method.
For another assay, the system named is Plutella xylostella. Description: Larvicidal activity against Plutella xylostella assessed as mortality and measured upto 4 days. The settings on record: 96 h, time <= 4 day.
The test system of assay [3] is Candida albicans. Description: Antifungal activity against Candida albicans incubated for 24 hrs by microbroth dilution method.

On to `CCCCC/C=C\CCC(=O)O[C@@]12[C@H](OC(=O)[C@@H](C)CC)[C@@H](C)[C@@]3(O)[C@@H](C(=O)C(CO)=C[C@]4(O)C(=O)C(C)=C[C@@H]34)[C@@H]1C2(C)C`, for which the MIC50 was 63.4 µg/mL in the assay on Candida albicans [1] and 200 µg/mL (≈ 325 µM) with Candida albicans [2]. For the same molecule, the LC50 in the assay on Plutella xylostella worked out at 0.19 µM.

As to `CC[C@H](C)C(=O)O[C@@]12[C@H](OC(=O)c3ccccc3)[C@@H](C)[C@@]3(O)[C@@H](C=C(CO)C[C@]4(O)C(=O)C(C)=C[C@@H]34)[C@@H]1C2(C)C`, the MIC50 with Candida albicans [1] came to 5.1 µg/mL.

`CC/C=C\C/C=C\CCC(=O)O[C@@]12[C@H](OC(=O)[C@@H](C)CC)[C@@H](C)[C@@]3(O)[C@@H](C(=O)C(CO)=C[C@]4(O)C(=O)C(C)=C[C@@H]34)[C@@H]1C2(C)C`: the values for the MIC50 in the assay on Candida albicans [1] and in the assay with Candida albicans [2] were 11.9 µg/mL and 159 µg/mL (≈ 260 µM), respectively. In addition, the LC50 in the assay with Plutella xylostella turned out to be 0.16 µM.

For `CC[C@H](C)C(=O)O[C@@H]1[C@@H](C)[C@@]2(O)[C@@H](C(=O)C(CO)=C[C@]3(O)C(=O)C(C)=C[C@@H]23)[C@@H]2C(C)(C)[C@]12OC(=O)[C@@H](C)CC`, the MIC50 in the assay with Candida albicans [1] came out at 14 µg/mL; against Candida albicans [2] it was 15.1 µg/mL (≈ 27.6 µM).

For `C/C=C(\C)C(=O)O[C@@H]1[C@@H](C)[C@@]2(O)[C@@H](C(=O)C(CO)=C[C@]3(O)C(=O)C(C)=C[C@@H]23)[C@@H]2C(C)(C)[C@]12OC(=O)CC/C=C\CCCCC`, the LC50 in the assay on Plutella xylostella was found to be 0.26 µM.

Consider `CCCCCCCCCC(=O)O[C@@]12[C@H](OC(=O)[C@@H](C)CC)[C@@H](C)[C@@]3(O)[C@@H](C(=O)C(CO)=C[C@]4(O)C(=O)C(C)=C[C@@H]34)[C@@H]1C2(C)C`, for which the MIC50 in the assay on Candida albicans [1] stood at 5.18 µg/mL; in the assay on Candida albicans [2], 161 µg/mL (≈ 261 µM).

As for `CCCCCCCC(=O)O[C@@]12[C@H](OC(=O)[C@@H](C)CC)[C@@H](C)[C@@]3(O)[C@@H](C(=O)C(CO)=C[C@]4(O)C(=O)C(C)=C[C@@H]34)[C@@H]1C2(C)C`, the results for the MIC50 in the assay with Candida albicans [1] and with Candida albicans [2] were 50.5 µg/mL and 114 µg/mL (≈ 193 µM), respectively.

Turning to `Cc1cc(C(F)(C(F)(F)F)C(F)(F)F)ccc1NC(=O)c1cccc(I)c1C(=O)NC(C)(C)CS(C)(=O)=O` [FLUBENDIAMIDE], in the assay on Plutella xylostella, the 50% lethal concentration (LC50) came to 0.14 µM.

In turn, `OC(Cn1cncn1)(Cn1cncn1)c1ccc(F)cc1F` [FLUCONAZOLE] came in with an MIC50 with Candida albicans [3] of 4.4 µg/mL (≈ 14.4 µM).
